US11851459B2, “Methods and uses of modulators of anaphase promoting complex (APC) activity for treating cancer” (University of Saskatchewan, priority 2018, dated 2023)

System: wild type (WT) cells
Assay: Growth of WT yeast expressing peptides, spot dilution
Type: cell-based
Conditions: peptides expressed in WT yeast
Description: A. Yeast 2-hybrid (Y2H) cells expressing the APC subunit bait and the galactose inducible Apc10 peptide prey grown on glucose or galactose. Cells co-expressing the Apc5 or Apc10-bait and Apc10 aptamer-prey vectors were spotted onto the appropriate media, in the presence or absence of galactose (the aptamers are Gal inducible), to confirm Y2H interactions. Growth on trp^− his^− media ensures both plasmids are maintained. A Y2H interaction will drive expression of the ADE2 gene, allowing growth on ade^− media. B. Aptamers that bind Apc10 can suppress APC mutant phenotypes. Spot dilutions of apc10Δ cells expressing an empty vector control or the one of 6 Apc10 aptamers tested. Log phase cells were 10-fold serially diluted and spotted onto plates containing either 2% glucose or 2% galactose. The plates were then incubated at 30° C. (permissive temperature) and 34° C. (restrictive stress). C. Peptides identified as binding to the yeast Apc10 APC subunit using the Y2H screen increase growth of wildtype (WT) cells. A series of APC binding peptides were transformed into WT yeast cells, spot diluted, and grown at 30° C. on media supplemented with the normal carbon source (2% glucose). […]
The six peptide expressing vectors were transformed into apc10Δ cells and assessed for temperature sensitive growth. […]

For NGSSHNDLRVRRLTLISRLC [C43-4], the “growth / viability of WT cells” value was “increases the viability of WT cells”.
